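Where inhibition never reached the appropriate level, the endpoint shown equals the highest concentration tested. Otherwise, values were interpolated linearly from a five-concentration, 48-hour dose response in 96-well plates. The concentration for full growth arrest is given as TGI.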
Key:
Assay in all cases: growth of human tumour cells (NCI), 48 h
786-0 renal = tested on: 786-0 renal
CCRF-CEM leukemia = tested on: CCRF-CEM leukemia
COLO 205 colon = tested on: COLO 205 colon
DU-145 prostate = tested on: DU-145 prostate
HCT-15 colon = tested on: HCT-15 colon
MCF7 breast = tested on: MCF7 breast
NCI-H226 lung = tested on: NCI-H226 lung
NCI-H460 lung = tested on: NCI-H460 lung
NCI/ADR-RES ovarian = tested on: NCI/ADR-RES ovarian
OVCAR-4 ovarian = tested on: OVCAR-4 ovarian
OVCAR-5 ovarian = tested on: OVCAR-5 ovarian
SF-295 CNS = tested on: SF-295 CNS
SK-MEL-2 melanoma = tested on: SK-MEL-2 melanoma
SK-MEL-28 melanoma = tested on: SK-MEL-28 melanoma
SK-OV-3 ovarian = tested on: SK-OV-3 ovarian
SN12C renal = tested on: SN12C renal
SW-620 colon = tested on: SW-620 colon
T-47D breast = tested on: T-47D breast
UO-31 renal = tested on: UO-31 renal

Compound | TGI (786-0 renal) [µM] | TGI (CCRF-CEM leukemia) [µM] | TGI (COLO 205 colon) [µM] | TGI (DU-145 prostate) [µM] | TGI (HCT-15 colon) [µM] | TGI (MCF7 breast) [µM] | TGI (NCI-H226 lung) [µM] | TGI (NCI-H460 lung) [µM] | TGI (NCI/ADR-RES ovarian) [µM] | TGI (OVCAR-4 ovarian) [µM] | TGI (OVCAR-5 ovarian) [µM] | TGI (SF-295 CNS) [µM] | TGI (SK-MEL-2 melanoma) [µM] | TGI (SK-MEL-28 melanoma) [µM] | TGI (SK-OV-3 ovarian) [µM] | TGI (SN12C renal) [µM] | TGI (SW-620 colon) [µM] | TGI (T-47D breast) [µM] | TGI (UO-31 renal) [µM]
FC(F)(F)C1(C(F)(F)F)C2CCC3(CC(F)(F)C(F)(F)S3)C1C2 (stereo not drawn) | > 100 | 60.9 | 76.3 | > 100 | > 100 | 84.3 | > 100 | > 100 | > 100 | > 100 | > 100 | > 100 | 49.1 | > 100 | > 100 | > 100 | > 100 | > 100 | 68.3
CC1(C)S[C@@H]2[C@H](NC(=O)/C=C/c3ccccc3)C(=O)N2[C@H]1C(=O)O | > 100 | > 100 | > 100 | > 100 | > 100 | > 100 | > 100 | > 100 | > 100 | > 100 | > 100 | > 100 | > 100 | > 100 | > 100 | > 100 | > 100 | > 100 | > 100
COP(=O)(C(/C=C/c1ccccc1)OC(C)=O)[C@@H]1CCCC[C@H]1N(CC(C)(C)C)C(C)=O (stereo partly drawn) | 35.8 | 67.2 | 27.1 | 32.5 | 61.6 | > 100 | 27 | 28.6 | 42.2 | 33.1 | 78.9 | 39.9 | 29.8 | 53.1 | > 100 | 30.2 | 41.2 | 32.6 | 27.9
O=C(NNC(=O)c1ccccc1Cl)c1ccccc1O | > 100 | > 100 | > 100 | > 100 | > 100 | > 100 | 77.1 | > 100 | > 100 | > 100 | > 100 | > 100 | > 100 | > 100 | > 100 | > 100 | > 100 | > 100 | > 100
CN(CC#N)C(=O)Cc1ccc([N+](=O)[O-])cc1 | > 10 | > 10 | > 10 | > 10 | > 10 | > 10 | > 10 | > 10 | > 10 | > 10 | > 10 | > 10 | > 10 | > 10 | > 10 | > 10 | > 10 | > 10 | > 10
CC1C(=O)C23OC[C@@]1(C)C1(O)CC[C@@H](C)[C@]21CC3=O (stereo partly drawn) | > 100 | > 100 | > 100 | > 100 | > 100 | > 100 | > 100 | > 100 | > 100 | > 100 | > 100 | > 100 | > 100 | > 100 | > 100 | > 100 | > 100 | > 100 | > 100
Cc1ccccc1NC(=O)C(=O)Cc1cnc2ccccc2n1 | > 100 | > 100 | > 100 | > 100 | > 100 | > 100 | > 100 | > 100 | > 100 | > 100 | > 100 | > 100 | > 100 | > 100 | > 100 | > 100 | > 100 | > 100 | > 100

Source: PubChem BioAssay (NCI)
